Reference: patent US20230092005A1, “COMPOSITIONS AND METHODS FOR TREATING CANCER AND TUMOR” (OBLATO, INC., priority 2020, published 2023)

Test system: human A549 lung cancer xenografts
Test: Hematoxylin & Eosin (H&E) staining of extracted A549 xenograft tumors (necrosis grading)
Assay type: in vivo, BALB/c Nude mouse
Details: N=10
Excerpt: Histopathological test: The extracted tumors were fixed in 10% neutral buffered formalin solution (10% neutral buffered formalin). After sectioning the tumors to a certain thickness (about 3 mm), those were subjected to the general preparation procedure, embedded in paraffin, cut into 4 to 5 μm size, and tissue sections were stained with Hematoxylin and Eosin (H&E) and TUNEL. IHC (Immunohistochemistry) slides, cut into 4 to 5 μm size, were produced and sent to the sponsor (Negative Control Group (G1), Test substance 2 (G3, Animal ID Nos.: 1301, 1302, 1303, 1307, 1310), Test substance 3 (G4, Animal ID Nos.: 1401, 1402, 1404, 1408, 1409)). Determination of Hematoxylin & Eosin (H&E) staining results: Necrosis of tumors was assessed by grading (±, +, ++, +++, ++++) the extent of necrosis in the whole section of the tumor. Necrosis was evaluated by morphological changes such as collapse or disappearance of the nucleus and eosinophilic change of cytoplasm. The extent of tumor necrosis was determined by the percentage of the following necrosis area. Histopathological test (Table 7, FIGS. 7-11): The extracted fixed tumor was cut to a certain thickness (about 3 mm), then subjected to general tissue treatment, paraffin-embedded to produce blocks, and tissue sections of 4 to 5 μm in size were prepared. Then, Hematoxylin & Eosin (H&E) staining and TUNEL staining were performed.

## CC(C)(C)/[N+]([O-])=C/c1ccc(S(=O)(=O)O)cc1S(=O)(=O)O [OKN-007, Disodium 4-[(Z)-[tert-butyl(oxido)azaniumylidene]methyl]benzene-1,3-disulfonate]
G2, 150 mg/kg P.O.
  Necrosis grade + : number of animals: 3
  Necrosis grade ++ (moderate): number of animals: 2
  Necrosis grade +++ (marked): number of animals: 0
  Necrosis grade ++++ (severe): number of animals: 0
  Necrosis grade ± (minimal): number of animals: 5
G3, 300 mg/kg P.O.
  Necrosis grade + : number of animals: 2
  Necrosis grade ++ (moderate): number of animals: 1
  Necrosis grade +++ (marked): number of animals: 0
  Necrosis grade ++++ (severe): number of animals: 0
  Necrosis grade ± (minimal): number of animals: 7
G4, 600 mg/kg P.O.
  Necrosis grade + : number of animals: 2
  Necrosis grade ++ (moderate): number of animals: 2
  Necrosis grade +++ (marked): number of animals: 0
  Necrosis grade ++++ (severe): number of animals: 0
  Necrosis grade ± (minimal): number of animals: 6
